Measured values from patent US5219825A, “Synergistic herbicidal compositions comprising herbicides which generate toxic oxygen radicals and chelating agents which inhibit their detoxification” (Yeda Research and Development Co., Ltd., priority 1986, dated 1993).

Assays:
leaves = assay: Blocked chelate controls tested for synergism with paraquat; assay type: in vivo
Text: (§1) The commercial fungicides, maneb [manganese ethylene-bis(dithiocarbamate) (polymeric)] and zineb [zinc ethylene-bis (dithiocarbamate) (polymeric)] were used, they have similar structures and effects as DDC, but are blocked and act as chelate controls […] to clarify that a synergism would be due to the chelating effect of diethyldithiocarbamate. […] They could not chelate copper due to their being blocked.

[1] = system: Conyza bonariensis low herbicide requiring biotype; assay: Whole plant spray, visual rating; assay type: in vivo; details: DDC 0.5% where added, scored one day after treatment
Text: (§2) Seeds of Conyza bonariensis were germinated and plants cultivated as outlined in Example 1. Other species were germinated in a similar mixture and treated at 10 days.
as §1
(§3) ^a visual ratings (scored 1 day after treatment): 0 no damage to
(§4) slight burn; 1 moderate burn (may regenerate); 2 severe burn (will die)
(§5) Similarly, both the paraquat resistant and sensitive biotypes of Conyza bonariensis were treated with two other oxidant generating herbicides. Atrazine (of the triazine group) is the most widely used oxidant generating herbicides in agriculture. We used various dilutions of a commercial wettable powder (Atranex 50WP-Agan Chemicals) to which we added 0.5% DDC. The effects were scored 24 h later. […] We also tested to see whether acifluorfen, a nitro diphenyl ether herbicide would be synergized. It is generally agreed that light and oxygen are required for its action via oxidant damage. We sprayed a commercial formulation of acifluorfen (Blazer, Rohm and Haas) to which were added 0.25% Tween-20 detergent, with and without DDC. The effects were scored 24 h later.

[2] = system: Conyza bonariensis high herbicide requiring biotype; assay: Whole plant spray, visual rating; assay type: in vivo; details: DDC 0.5% where added, high herbicide requiring biotype; for visual ratings: scored one day after treatment
Text: as §2, §1, §3, §4, §5

[3] = system: isolated Asparagus sprengeri cells; assay: Chlorophyll loss in isolated cells (synergism at the cellular level); assay type: cell-based; details: for % of control chlorophyll: DDC 0.02% where added, 40 h, low light 305 μEin m^-2 s^-1; for chlorophyll remaining - % of control: paraquat 0 μM, 14 h, 1000 μEin m^-2 s^-1
Description: Isolated cells offer an excellent rapid method of screening for phytotoxicity using a large number of potential chelators and synergists. Asparagus sprengeri cells were isolated from cladophylls of field grown plants using the procedure of Colman et al. (Can. J. Botany 57 1505, (1979)) except that the isolation, washing and culture buffer was 50 mM HEPES brought to pH 7.2 with KOH. The cladophylls were surface sterilized using 80% aqueous ethanol. After three centrifugations to remove broken cells, the cells were diluted to 10% packed volume and 0.75 ml were placed in each well of cluster dishes. The potential synergists in this example 0.02% w/v final concentration diethyldithiocarbamate (DDC) and an oxime of 4-octyl-2-acetyl-phenol (U.S. Pat. No. 4,215,219) which complex primarily with copper and di-2-ethylhexyl-phosphoric acid which complexes primarily with zinc (Flett, Chem and Ind. 17 706, (1977)) was placed with the herbicides atrazine and paraquat. All additions were made at 100 fold the final concentration of herbicide and synergist. Paraquat was dissolved in water and atrazine in methanol. The cluster dishes were incubated on a reciprocal shaker with a clear plastic bottom and illuminated from top and bottom with fluorescent lights emitting 135 μEin.m^-2 s^-1 (top) and 170 μEin.m^-2 s^-1 (bottom). The cells were kept mixed by the shaker and incubation was at room temperature. Incubation was stopped when there was visually obvious loss of chlorophyll due to treatments in a given experiment. The cells were removed to glass centrifugation tubes, centrifuged and the supernatant removed. One ml of 80% aqueous acetone was added to extract chlorophyll, the debris were sedimented by centrifugation and chlorophyll was spectrophotometrically determined at 645 and 663 nm according to Arnon (Plant Physiology 24 1, (1949)). […] In another experiment, a larger variety of chelating synergists and oxidant generating herbicides were used, and light was given at a much higher intensity 1000 μEin m^-2 s^-1 to better approach natural sunlight which is at 1200-1500 […].
Paraquat toxicity was measured 24 h after treatment and atrazine toxicity was measured 40 h after treatment.
Paraquat toxicity was measured 14 h after treatment.

[4] = system: Conyza bonariensis paraquat tolerant (high herbicide requiring) biotype; assay: Malonyldialdehyde in tissue (lipoxidation, membrane damage) after spraying; assay type: in vivo; details: for membrane damage (malonyldialdehyde release): DDC 0.5% where added, high herbicide requiring biotype, untreated control = 100; for malonyldialdehyde in tissue (% untreated control): tolerant biotype
Description: (§6) Seeds of two biotypes of Conyza bonariensis (L.) Cronq. (synonym C. linifolia) were obtained from Egypt. The paraquat sensitive biotype was gathered near Alexendria and seeds of the resistant type from the Tahrir irrigation district. They were obtained from Dr. Martin Parham in England. Seeds were germinated in a growth room with a 14 h light period at 25° C. Plants were transferred out of doors 24 h before being sprayed. The phytotoxicity of three herbicides representative of the three different modes of generating active oxygen species known at present. Commercial paraquat (Gramoxone-ICI Plant Protection Ltd) was formulated with 0.1% (w/v) Tween-20 (a non-ionic surfactant) for spraying. The response to the range of 10^-5 M to 10^-2 M paraquat was measured by spraying two plants per concentration to run-off in the early morning. All plants were exposed to sunlight for at least 13 h (1300 μE.m^-2s^-1 photosynthetically active radiation (PAR) at mid day). Commercial acifluorfen (Blazer, Rohm, and Hass, Philadelphia, Pa., USA) to which was added 0.25% Tween-20 was sprayed to run-off. The response to spraying was measured as with paraquat 24 h after spraying. Commercial atrazine (Atranex 50 WP-Agan) was sprayed at various rates in 0.25% Tween 20 to run off. Fully expanded, 8 to 10 cm long leaves from plants in the rosette stage were used in all experiments. Phytotoxicity of acifluorfen and paraquat was measured as CO2 fixation 24 h later as follows: Detached leaves were placed on wet filter paper in a sealed chamber with 5μ Ci^14 C-sodium bicarbonate. Tartaric acid was remotely dripped on the sodium bicarbonate to release ^14 CO2. Leaves were illuminated with […] (PAR) for 30 min. Eighty percent acetone was added and the mixture put under strong light to photobleach pigments and evaporate the acetone. A scintillation mixture of Lumax:xylene (45:55) was added to the leaves and remaining water. The samples were counted and the data expressed as DPM.cm^-2. Area was measured with a planimeter from photocopies of the leaves made prior to photosynthesis measurements. Phytotoxicity of atrazine was measured as the elevated level of malonyldialdehyde in the tissue. Malonyldialdehyde (as measured with thiobarbituric acid according to Dodge and Gillham (Asp. Appl. Biol 11 97 (1986)) is a measurement of lipoxidation of unsaturated fatty acids, and provides an excellent estimation of damage by active oxygen species.
(§7) ^b membrane damage was measured as malonyldialdehyde release
as §5

[5] = system: Conyza bonariensis paraquat sensitive (low herbicide requiring) biotype; assay: as above; assay type: in vivo; details: for membrane damage (malonyldialdehyde release): DDC 0.5% where added, low herbicide requiring biotype, untreated control = 100; for malonyldialdehyde in tissue (% untreated control): sensitive biotype
Description: as §6, §7, §5

[6] = system: Conyza bonariensis low herbicide requiring biotype; assay: Photosynthesis (14CO2 fixation) of leaf discs removed 5 h after spray treatment; assay type: in vivo; details: foliar, DDC 0.5% where added, leaf discs removed 5 h after treatment, untreated control = 100
Description: as §5
^b photosynthesis (^14 CO2 fixation) was used as an
additional measurement of phytotoxicity. Leaf discs were removed 5 h afte
treatment for measurement

bean leaf discs = assay: Bean leaf disc bleaching assay; assay type: cell-based; details: 5 h at 450 μEin.m^-2 s^-1
Description: We used this bean leaf disc system to ascertain the potential of chelators to synergize a large variety of phytotoxicants purported to act by generating active oxygen species in the light.
Bean discs were incubated on solutions containing the above mixtures for 5 h at 450 μEin.m^-2 s^-1 and the chlorophyll remaining in the leaves was assayed.

[7] = system: Conyza bonariensis paraquat tolerant biotype; assay: Phytotoxicity measured as 14CO2 fixation 24 h after spraying; assay type: in vivo; details: tolerant biotype
Description: as §6

[8] = system: Conyza bonariensis paraquat sensitive biotype; assay: as above; assay type: in vivo; details: sensitive biotype
Description: as §6

[9] = atrazine 15 μM spray to run off
[10] = atrazine 30 μM spray to run off
[11] = atrazine 20 μM spray to run off
[12] = atrazine 40 μM spray to run off
[13] = atrazine molar conc. 1.0 × 10^-2
[14] = atrazine molar conc. 1.5 (× 10^-2)
[15] = atrazine molar conc. 2.0 (× 10^-2)
[16] = atrazine molar conc. 3.0 (× 10^-2)
[17] = atrazine molar conc. 4.0 (× 10^-2)
[18] = atrazine molar conc. 5.0 (× 10^-2)
[19] = herbicide molar conc. 3.2 × 10^-3

manganese ethylene-bis(dithiocarbamate) (polymeric) [maneb]
synergistic effects with paraquat (leaves): Neither maneb nor zineb had synergistic effects with paraquat

CCNc1nc(Cl)nc(NC(C)C)n1 [atrazine]
visual ratings [1, 9]: 2.1 | visual ratings [1, 10]: 2.3 | visual ratings [2, 9]: 1.7 | visual ratings [2, 10]: 1.7 | % of control chlorophyll ([3]; atrazine 3 × 10^-6 M, 3 µM): 95 % of control | % of control chlorophyll ([3]; atrazine 10^-5, 10 µM): 92 % of control | membrane damage (malonyldialdehyde release) [4, 11]: 100 | membrane damage (malonyldialdehyde release) [4, 12]: 100 | malonyldialdehyde in tissue (% untreated control) [4, 13]: 100 % untreated control | malonyldialdehyde in tissue (% untreated control) [4, 14]: 100 % untreated control | malonyldialdehyde in tissue (% untreated control) [4, 15]: 100 % untreated control | malonyldialdehyde in tissue (% untreated control) [4, 16]: 100 % untreated control | malonyldialdehyde in tissue (% untreated control) [4, 17]: 100 % untreated control | malonyldialdehyde in tissue (% untreated control) [4, 18]: 125 % untreated control | membrane damage (malonyldialdehyde release) [5, 11]: 130 | membrane damage (malonyldialdehyde release) [5, 12]: 225 | malonyldialdehyde in tissue (% untreated control) [5, 13]: 100 % untreated control | malonyldialdehyde in tissue (% untreated control) [5, 14]: 135 % untreated control | malonyldialdehyde in tissue (% untreated control) [5, 15]: 130 % untreated control | malonyldialdehyde in tissue (% untreated control) [5, 16]: 155 % untreated control | malonyldialdehyde in tissue (% untreated control) [5, 17]: 225 % untreated control | malonyldialdehyde in tissue (% untreated control) [5, 18]: 320 % untreated control

NCCNCCNCCNCCN [Tetraethylene-pentamine, tetraethylene pentamine]
chlorophyll remaining - % of control ([3]; chelator alone 0.025%): 99 % of control

O=C(O)c1cccc(C(=O)O)n1 [Pyridine-2,6-dicarboxylic acid]
chlorophyll remaining - % of control ([3]; chelator alone 0.005%): 100 % of control

NCCNCCNCCN [Triethylene-tetramine]
chlorophyll remaining - % of control ([3]; chelator alone 0.008%): 90 % of control

O=C(O)c1cc(Oc2ccc(C(F)(F)F)cc2Cl)ccc1[N+](=O)[O-] [acifluorfen]
visual rating ([2]; acifluorfen 100 μM spray to runoff, scored 24 h after treatment): 2.5 | activity at 3 µM ([6]; acifluorfen 3 μM spray to runoff): 75% | activity at 100 µM ([6]; acifluorfen 100 μM spray to runoff): 10% | chlorophyll - % of control (bean leaf discs; acifluorfen 3 μM, chelator 0.01% w/v where added): 91 % of control | % photosynthesis inhibition [7, 19]: 67% | % photosynthesis inhibition ([7]; herbicide molar conc. 10^-2): 99% | % photosynthesis inhibition ([7]; herbicide molar conc. 10^-3): 21% | % photosynthesis inhibition [8, 19]: 72% | % photosynthesis inhibition ([8]; herbicide molar conc. 3.2 × 10^-4): 40% | % photosynthesis inhibition ([8]; herbicide molar conc. 10^-2): 98% | % photosynthesis inhibition ([8]; herbicide molar conc. 10^-3): 58% | % photosynthesis inhibition ([8]; herbicide molar conc. 10^-4): 23%

CCCCCCCCc1ccc(O)c(C(C)=NO)c1 [4-Octyl-2-acetyl-phenol oxime, oxime of 4-octyl-2-acetyl-phenol]
chlorophyll remaining - % of control ([3]; chelator alone 0.125%): 96 % of control

CCCCC(CC)COP(=O)(O)OCC(CC)CCCC (stereo not shown) [di-2-ethyl-hexyl-phosphoric acid, Di-2-ethyl-hexyl phosphoric acid]
chlorophyll - % of control (bean leaf discs; acifluorfen 0 μM, chelator alone 0.01% w/v): 98 % of control | chlorophyll - % of control (bean leaf discs; acifluorfen 0 μM, chelator alone 0.02% w/v): 91 % of control | chlorophyll - % of control (bean leaf discs; paraquat 0 μM, chelator alone 0.01% w/v): 98 % of control | chlorophyll remaining - % of control ([3]; chelator alone 0.001%): 98 % of control
